Results as given in publication PMC8294059, “Identification and Immune Assessment of T Cell Epitopes in Five Plasmodium falciparum Blood Stage Antigens to Facilitate Vaccine Candidate Selection and Optimization” (Frontiers in Immunology, 2021).
Where two headings read alike, the source gives them in different places. Where a SMILES comes first, the peptide text is derived from it.

Assays:
HLA-DRB1*0301 = HLA-DRB1*0301 (Homo sapiens, UniProt P01903+P01911, A100K/A102G/A103R/A169T/F55Y/I96L/K41T/L162R/M171V/P40S/Q125H/Q178H/Q39Y/R42S/S66N/T106N/T262R/W38E/Y61H); assay: biochemical; type: binding
Sequence of HLA-DRB1*0301 (P01903 26-254 limits assumed, other chains not shown): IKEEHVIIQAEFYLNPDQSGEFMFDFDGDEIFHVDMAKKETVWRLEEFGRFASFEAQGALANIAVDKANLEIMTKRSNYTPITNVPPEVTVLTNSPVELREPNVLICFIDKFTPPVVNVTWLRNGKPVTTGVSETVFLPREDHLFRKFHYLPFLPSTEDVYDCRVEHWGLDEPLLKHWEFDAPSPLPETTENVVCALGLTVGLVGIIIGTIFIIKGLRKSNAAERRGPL

HLA-DRB1*0701 = HLA-DRB1*0701 (Homo sapiens, UniProt P01903+P01911, A100R/A102G/A103Q/D57E/D86V/E43K/F76Y/K127E/L162R/M171V/P40G/Q125H/Q99D/R33Q/R42Y/R54Q/S133A/S66F/T210M/V115G/Y107V/Y59L/Y89S); assay: biochemical; type: binding
How it was run: (§1)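 Peptides were titrated (final 100,000 nM down to 100 nM) in competition with a labeled reference binder for commercial HLA-DRB1 monomers.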

HLA-DRB1*1501 = molecular target: T1, HLA-DRB1*1501 (Homo sapiens, UniProt P01903+P01911); assay: biochemical; type: binding
T1 construct: purchased
How it was run: as §1

HLA-DRB1*0401 = molecular target: T2, HLA-DRB1*0401 (Homo sapiens, UniProt P01903+P01911, A100K/A169T/F76Y/I96L/K127E/L162R/M171V/N62H/P40V/Q125Y/R42H/S133A/S149N/S66Y/V115G/V209L/W38E); assay: biochemical; type: binding
T2 construct: purchased
How it was run: as §1

HLA-DRB1*1301 = HLA-DRB1*1301 (Homo sapiens, UniProt P01903+P01911, A100E/A169T/K41T/L162R/M171V/P40S/Q125H/Q178H/Q39Y/Q99D/R42S/S66N/T262R/W38E/Y61H); assay: biochemical; type: binding
How it was run: as §1

HLA-DRB1*0101 = molecular target: T3, HLA-DRB1*0101 (Homo sapiens, UniProt P01903+P01911, A100R/D57E/F55L/F60I/F76Y/I96L/L162R/M171V/P40L/Q125E/R42F/V115G/Y59C); assay: biochemical; type: binding
T3 construct: purchased
How it was run: as §1

HLA-DRB1*0801 = HLA-DRB1*0801 (Homo sapiens, UniProt P01903+P01911, A100R/A103L/A169T/D86S/F76Y/H45Y/I96F/K41T/L162R/M171V/P40S/Q125H/Q178H/Q39Y/Q99D/R218S/R42G/S66Y/V115G/W38E); assay: biochemical; type: binding
How it was run: as §1

HLA-DRB1*1101 = HLA-DRB1*1101 (Homo sapiens, UniProt P01903+P01911, A100R/A169T/A87E/I96F/K41T/L162R/M171V/P40S/Q125H/Q178H/Q39Y/Q99D/R42S/S66Y/T262R/V115G/W38E); assay: biochemical; type: binding
Sequence of HLA-DRB1*1101 (P01903 26-254 limits assumed, other chains not shown): as above
How it was run: as §1

HLA-A*0301 = HLA-A*0301 (Homo sapiens, UniProt P04439); assay: biochemical; type: binding; settings: allele A*0301; fluorescence polarization competition; read-out: IC50 (nM), in vitro HLA binding affinity
How it was run: (§2)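 Cell-free competition assay: HLA heat-treated 53°C for 15 min to strip endogenous peptides, then mixed with fluorescent high-affinity control peptide and test peptides for 72 h to equilibrium. Displacement read by fluorescence polarization as percent inhibition; IC50 derived from a concentration range.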

HLA-B*4402 = HLA-B*4402 (Homo sapiens, UniProt P01889, A223V/A65T/A93T/A95T/D201E/D98Y/E176V/E187L/E204Q/E69K/G107R/H137Y/K202T/L105A/L119I/N104T/N87E/Q56L/Q94N/R106L/R155S/R180D/S101N/S121R/S35A/S48T/T118I/V36M/W191S/Y140D/Y91S); assay: In vitro class I HLA binding assay (fluorescence polarization competition); settings: allele B*4402
How it was run: as §2

HLA-A*0101 = HLA-A*0101 (Homo sapiens, UniProt P04439, A114D/A174V/A182V/D101N/D185E/E176A/E190D/L180R/Q94H/R68K/S129P/T187R/V100A/V91M/W191G); assay: biochemical; type: binding; settings: allele A*0101; fluorescence polarization competition
How it was run: as §2

[1] = binding inhibition assay, NB = non-binder (no dose-dependent inhibition), read-out: DRB1*0303 IC50
[2] = binding inhibition assay, NB = non-binder (no dose-dependent inhibition), read-out: DRB1*1501 IC50
[3] = binding inhibition assay, NB = non-binder (no dose-dependent inhibition), read-out: DRB1*1301 IC50
[4] = binding inhibition assay, NB = non-binder (no dose-dependent inhibition), read-out: DRB1*0101 IC50
[5] = fluorescence polarization competition, read-out: IC50 (nM), in vitro HLA binding affinity
[6] = fluorescence polarization competition
[7] = binding inhibition assay, NB = non-binder (no dose-dependent inhibition), read-out: DRB1*0701 IC50

CC[C@H](C)[C@H](NC(=O)[C@H](CO)NC(=O)[C@H](CC(N)=O)NC(=O)[C@H](Cc1ccc(O)cc1)NC(=O)[C@H](CO)NC(=O)[C@H](CC(C)C)NC(=O)[C@H](Cc1c[nH]cn1)NC(=O)[C@H](CCCCN)NC(=O)[C@H](Cc1ccc(O)cc1)NC(=O)[C@H](Cc1ccc(O)cc1)NC(=O)[C@H](CC(=O)O)NC(=O)[C@H](CC(C)C)NC(=O)[C@H](Cc1ccccc1)NC(=O)[C@@H](NC(=O)[C@H](Cc1ccc(O)cc1)NC(C)=O)[C@@H](C)O)C(=O)N[C@@H](Cc1ccc(O)cc1)C(=O)N[C@@H](Cc1c[nH]cn1)C(=O)N[C@@H](CCCCN)C(N)=O [RH5_006A] (Ac-YTFLDYYKHLSYNSIYHK-NH2)
IC50 (HLA-DRB1*0301): 8.48 µM
IC50 (HLA-DRB1*0701): 30.5 µM
IC50 (HLA-DRB1*1501): 4.13 µM
IC50 (HLA-DRB1*0401): 4.39 µM
IC50 (HLA-DRB1*1301): 4.35 µM
IC50 (HLA-DRB1*0101): 0.122 µM
IC50 (HLA-DRB1*0801): 46.8 µM
IC50 (HLA-DRB1*1101): 2.45 µM

CC[C@H](C)[C@H](NC(=O)[C@H](CCSC)NC(=O)[C@H](CO)NC(=O)[C@H](C)NC(=O)[C@H](CC(N)=O)NC(=O)[C@H](CCCCN)NC(=O)[C@H](CC(N)=O)NC(=O)[C@H](CCCCN)NC(=O)[C@H](Cc1ccccc1)NC(=O)CNC(=O)[C@H](CCC(=O)O)NC(=O)[C@H](CCCCN)NC(C)=O)C(=O)N[C@@H](CCCCN)C(=O)N[C@@H](CO)C(N)=O [AMA1_006A] (Ac-KEGFKNKNASMIKS-NH2)
IC50 (HLA-DRB1*0301; read-out: DRB1*0303 IC50): > 100 µM
IC50 (HLA-DRB1*0701; read-out: DRB1*0701 IC50): > 100 µM
IC50 (HLA-DRB1*1501; read-out: DRB1*1501 IC50): > 100 µM
IC50 (HLA-DRB1*0401; read-out: DRB1*0401 IC50): > 100 µM
IC50 (HLA-DRB1*1301; read-out: DRB1*1301 IC50): > 100 µM
IC50 (HLA-DRB1*0101): 3.94 µM
IC50 (HLA-DRB1*0801): 3.74 µM
IC50 (HLA-DRB1*1101; read-out: DRB1*1101 IC50): > 100 µM

CC[C@H](C)[C@H](NC(=O)[C@H](CC(N)=O)NC(=O)[C@H](CC(N)=O)NC(=O)[C@H](Cc1ccccc1)NC(=O)[C@H](CC(N)=O)NC(=O)[C@H](CC(N)=O)NC(=O)[C@H](CC(N)=O)NC(=O)[C@H](CC(N)=O)NC(=O)[C@H](CO)NC(=O)[C@H](CCCNC(=N)N)NC(C)=O)C(=O)N1CCC[C@H]1C(=O)N[C@@H](CO)C(=O)N[C@@H](CCCNC(=N)N)C(=O)N[C@@H](Cc1ccc(O)cc1)C(=O)N[C@@H](CC(N)=O)C(=O)N[C@@H](CC(C)C)C(=O)N[C@@H](Cc1ccc(O)cc1)C(=O)N[C@@H](CC(=O)O)C(N)=O [EBA175_017B] (Ac-RSNNNNFNNIPSRYNLYD-NH2)
IC50 (HLA-DRB1*0301; [1]): > 100 µM
IC50 (HLA-DRB1*1501; [2]): 23.6 µM
IC50 (HLA-DRB1*1301; [3]): > 100 µM
IC50 (HLA-DRB1*0101; [4]): 0.43 µM

CC(C)C[C@H](NC(=O)[C@H](CO)NC(=O)[C@H](CS)NC(=O)[C@@H]1CCCN1C(=O)[C@H](Cc1ccccc1)NC(=O)[C@H](CC(N)=O)NC(=O)[C@H](CC(N)=O)NC(=O)[C@H](CCC(=O)O)NC(=O)[C@@H](N)C(C)C)C(=O)N[C@@H](Cc1ccc(O)cc1)C(=O)O [AMA1_437] (H-VENNFPCSLY-OH)
IC50 (HLA-A*0301): 85400 nM
IC50 (HLA-B*4402; [5]): 6020 nM

SECDIGLIY [RIPR_0611]
IC50 (nM), in vitro HLA binding affinity (HLA-A*0101): Non-binder
IC50 (nM), in vitro HLA binding affinity (HLA-B*4402; [6]): Non-binder

EEKDDIKNG [RH5_049]
IC50 (nM), in vitro HLA binding affinity (HLA-B*4402; [6]): Non-binder

CC[C@H](C)[C@H](NC(=O)[C@H](CC(=O)O)NC(=O)[C@H](CCC(=O)O)NC(=O)[C@H](Cc1ccc(O)cc1)NC(C)=O)C(=O)N[C@H](C(=O)N[C@@H](CC(C)C)C(=O)N[C@@H](CCCCN)C(=O)N[C@@H](CO)C(=O)N[C@@H](Cc1c[nH]cn1)C(=O)N[C@@H](CCSC)C(=O)N[C@@H](CC(N)=O)C(=O)N[C@@H](CCCNC(=N)N)C(=O)N[C@@H](CCC(=O)O)C(=O)N[C@@H](CO)C(=O)N[C@@H](CC(=O)O)C(=O)N[C@@H](CC(=O)O)C(N)=O)C(C)C [EBA175_015] (Ac-YEDIVLKSHMNRESDD-NH2)
IC50 (HLA-DRB1*0301; [1]): > 100 µM
IC50 (HLA-DRB1*0701; [7]): > 100 µM
IC50 (HLA-DRB1*1501; [2]): 36 µM
IC50 (HLA-DRB1*1301; [3]): 4.92 µM
IC50 (HLA-DRB1*0101; [4]): 19.7 µM

NDVPIKMEYF [RH5_506]
IC50 (nM), in vitro HLA binding affinity (HLA-B*4402; [6]): Non-binder

CC(C)C[C@H](N)C(=O)N[C@@H](CCC(=O)O)C(=O)N[C@@H](Cc1ccccc1)C(=O)N[C@H](C(=O)N[C@@H](CS)C(=O)N[C@@H](CO)C(=O)N[C@@H](CC(N)=O)C(=O)N[C@@H](CCCNC(=N)N)C(=O)N[C@@H](CC(=O)O)C(=O)N[C@@H](Cc1ccccc1)C(=O)O)C(C)C [CYRPA_264] (H-LEFVCSNRDF-OH)
IC50 (HLA-B*4402; [5]): 7460 nM

KDLSDMTNI [RH5_378]
IC50 (nM), in vitro HLA binding affinity (HLA-B*4402; [6]): Non-binder

CC[C@H](C)[C@H](NC(=O)[C@H](Cc1ccc(O)cc1)NC(=O)[C@@H]1CCCN1C(=O)[C@H](CC(N)=O)NC(=O)[C@H](CC(=O)O)NC(C)=O)C(=O)N[C@@H](CO)C(=O)N[C@@H](CCCCN)C(=O)N[C@@H](Cc1ccc(O)cc1)C(=O)NCC(=O)N[C@@H](CC(N)=O)C(=O)N[C@@H](CCCCN)C(=O)N[C@@H](CC(C)C)C(=O)N[C@@H](CS)C(=O)N[C@@H](CCC(=O)O)C(=O)N[C@@H](CCCNC(=N)N)C(N)=O [RIPR_014] (Ac-DNPYISKYGNKLCER-NH2)
IC50 (HLA-DRB1*0301; [1]): > 100 µM
IC50 (HLA-DRB1*0701; [7]): > 100 µM
IC50 (HLA-DRB1*1501; [2]): 0.025 µM
IC50 (HLA-DRB1*0101; [4]): 0.092 µM
IC50 (HLA-DRB1*0801; binding inhibition assay, NB = non-binder (no dose-dependent inhibition), read-out: DRB1*0801 IC50): 95 µM

CC[C@H](C)[C@H](NC(=O)[C@H](Cc1ccc(O)cc1)NC(=O)[C@H](CC(=O)O)NC(=O)[C@H](CO)NC(=O)[C@@H](NC(=O)[C@@H](NC(=O)[C@@H](NC(=O)[C@H](CCC(=O)O)NC(=O)[C@@H](N)CO)[C@@H](C)CC)[C@@H](C)O)[C@@H](C)CC)C(=O)O [CYRPA_147] (H-SEITISDYI-OH)
IC50 (HLA-B*4402; [5]): 5380 nM

CC[C@H](C)[C@H](NC(=O)[C@H](Cc1c[nH]c2ccccc12)NC(=O)[C@H](CCC(N)=O)NC(=O)[C@@H](NC(=O)[C@@H](NC(=O)[C@H](CCC(N)=O)NC(=O)[C@H](CC(C)C)NC(=O)[C@H](CCC(=O)O)NC(=O)[C@@H](N)CCC(=O)O)[C@@H](C)CC)[C@@H](C)O)C(=O)O [EBA175_0316] (H-EELQITQWI-OH)
IC50 (HLA-B*4402; cell-free competition, fluorescence polarization at 72 hours, Non-binder = no dose-dependent inhibition, read-out: IC50): 19600 nM

CC[C@H](C)[C@H](NC(=O)[C@@H](NC(=O)[C@@H](NC(=O)[C@H](CCC(=O)O)NC(=O)[C@H](CO)NC(=O)[C@H](CC(N)=O)NC(=O)[C@H](CC(N)=O)NC(=O)[C@H](Cc1ccc(O)cc1)NC(=O)[C@H](CCC(=O)O)NC(=O)[C@@H](N)CCCCN)[C@@H](C)CC)[C@@H](C)O)C(=O)O [CYRPA_142] (H-KEYNNSEITI-OH)
IC50 (HLA-B*4402; [5]): 11000 nM

NENNENNFL [EBA175_1454]
IC50 (nM) (HLA-B*4402; cell-free competition, fluorescence polarization at 72 hours, Non-binder = no dose-dependent inhibition): Non-binder
